# According to patent USRE42462E1, “Carboxylic acid derivatives, their preparation and use” (Abbott GmbH & Co. KG, priority 1995, dated 2011):
# Key:
# [1] = molecular target: T1, Cloned human ETA receptor (Homo sapiens, UniProt P25101); experiment: ETA receptor binding assay ([125I]-ET1, membranes of CHO cells); details: 25 pM [125I]-ET1, 25° C., 30 min
# T1 construct: expressed in transfected cells; host or cells: CHO cells
# T1 sequence (P25101 21-427): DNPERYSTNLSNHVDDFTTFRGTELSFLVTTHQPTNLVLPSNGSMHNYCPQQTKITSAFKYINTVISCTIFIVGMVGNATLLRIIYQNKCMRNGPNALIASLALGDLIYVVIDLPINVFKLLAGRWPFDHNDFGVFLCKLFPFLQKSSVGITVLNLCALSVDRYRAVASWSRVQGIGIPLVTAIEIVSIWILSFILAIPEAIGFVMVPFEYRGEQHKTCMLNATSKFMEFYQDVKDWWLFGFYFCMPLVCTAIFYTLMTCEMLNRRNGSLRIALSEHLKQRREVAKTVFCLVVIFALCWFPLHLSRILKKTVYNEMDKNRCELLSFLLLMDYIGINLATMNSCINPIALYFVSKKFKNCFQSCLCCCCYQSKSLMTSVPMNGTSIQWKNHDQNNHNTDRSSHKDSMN
# Experimental: Cloned human ETA receptor-expressing CHO cells and guinea pig cerebellar membranes with >60% ETB compared with ETA receptors were used for binding studies.
# The ETA receptor-expressing CHO cells were grown in F12 medium containing 10% fetal calf serum, 1% glutamine, 100 U/ml penicillin and 0.2% streptomycin (Gibco BRL, Gaithersburg, Md., USA).
# After 48 h, the cells were washed with PBS and incubated with 0.05% trypsin-containing PBS for 5 min. Neutralization was then carried out with F12 medium, and the cells were collected by centrifugation at 300×g. To lyze lyse the cells, the pellet was briefly washed with lysis buffer (5 mM Tris-IICl, pII 7.4 with 10% glycerol) and then incubated at a concentration of 10^7 cells/ml of lysis buffer at 4° C. for 30 min. The membranes were centrifuged at 20,000×g for 10 min, and the pellet was stored in liquid nitrogen.
# For the ETA and ETB receptor binding assay, the membranes were suspended in incubation buffer (50 mM Tris-HCl, pH 7.4 with 5 mM MnCl2, 40 μg/ml bacitracin and 0.2% BSA) at a concentration of 50 μg of protein per assay mixture and incubated with 25 pM [125I] [^125I]-ET1 (ETA receptor assay) or 25 pM [125I] [^125I]-RZ3 (ETB receptor assay) in the presence and absence of test substance at 25° C. The nonspecific binding was determined using 10^--7 10^−7 M ET1. After 30 min, the free and bound radioligand were separated by filtration through GF/B glass fiber filters (Whatman, England) on a Skatron cell collector (Skatron, Lier, Norway) and the filters were washed with ice-cold Tris-HCl buffer, pH 7.4 with 0.2% BSA. The radioactivity collected on the filters was quantified using a Packard 2200 CA liquid scintillation counter.
# [2] = molecular target: T2, ETB receptors (Cavia porcellus, UniProt H0VTF3); experiment: ETB receptor binding assay ([125I]-RZ3, guinea pig cerebellar membranes); details: 25 pM [125I]-RZ3, 25° C., 30 min
# T2 construct: Guinea pig cerebella were homogenized in a Potter-Elvejhem homogenizer; from tissue; host or cells: guinea pig cerebellum membranes
# T2 sequence (H0VTF3 27-415): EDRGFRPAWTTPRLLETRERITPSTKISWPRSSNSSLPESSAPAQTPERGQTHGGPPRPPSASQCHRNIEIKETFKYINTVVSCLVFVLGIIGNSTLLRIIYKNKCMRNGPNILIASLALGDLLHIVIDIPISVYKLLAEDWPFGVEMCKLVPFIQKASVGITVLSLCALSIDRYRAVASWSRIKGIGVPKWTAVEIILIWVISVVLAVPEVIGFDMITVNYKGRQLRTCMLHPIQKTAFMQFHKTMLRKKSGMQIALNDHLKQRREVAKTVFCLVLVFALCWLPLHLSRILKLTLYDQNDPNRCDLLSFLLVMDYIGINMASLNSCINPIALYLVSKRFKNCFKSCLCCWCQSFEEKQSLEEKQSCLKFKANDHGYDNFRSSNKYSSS
# Experimental: Guinea pig cerebella were homogenized in a Potter-Elvejhem homogenizer and [lacuna] obtained by differential centrifugation at 1000×g for 10 min and repeated centrifugation of the supernatant at 20,000×g for 10 min.
SMILES,Ki [1] [nM],Ki [2] [nM],melting point [°C]
COc1nc(OC(C(=O)O)C(OC)(c2ccccc2)c2ccccc2)nc2c1CCC2 (stereo not drawn) [Compound I-96],0.6,56,
COc1cc(OC)nc(OC(C(=O)O)C2(OC)c3ccccc3CCc3ccccc32)n1 (stereo not drawn) [II-3],107,7300,
COc1cc(C)nc(OC(C(=O)O)C(OC)(c2ccccc2)c2ccccc2)n1 (stereo not drawn) [Compound I-103],0.4,,
COc1nc(OC(C(=O)O)C(OC)(c2ccccc2)c2ccccc2)nc2c1ccn2C (stereo not drawn) [I.89],86,9300,
COc1cc(OC)nc(OC(C(=O)O)C(OCC2CC2)(c2ccccc2)c2ccccc2)n1 (stereo not drawn) [Compound I-26],23,2000,
COc1cc(OC)nc(OC(C(=O)O)C(OC(C)C)(c2ccccc2)c2ccccc2)n1 (stereo not drawn) [Compound I-5],12,160,
COc1cc(OC)nc(OC(C(=O)O)C(SC)(c2ccccc2)c2ccccc2)n1 (stereo not drawn) [Compound I-107],3,485,
CCOC(c1ccccc1)(c1ccccc1)C(Oc1nc(OC)cc(OC)n1)C(=O)O (stereo not drawn) [Compound I-4],,2500,
COc1cc(OC)nc(OC(C(=O)O)C(Oc2ccccc2)(c2ccccc2)c2ccccc2)n1 (stereo not drawn) [Compound I-29],86,180,
COc1cc(OC)nc(OC(C(=O)O)C(OC)(c2ccccc2)c2ccccc2)n1 (stereo not drawn) [Compound I-2],,34,
CCCOC(c1ccccc1)(c1ccccc1)C(Oc1nc(OC)cc(OC)n1)C(=O)O (stereo not drawn) [Compound I-12],,1700,
COc1nc(OC(C(=O)O)C(OC)(c2ccccc2)c2ccccc2)nc2c1CCO2 (stereo not drawn) [Compound I-87],1,,
COc1cc(OC)nc(OC(C(=O)O)C(OCc2ccccc2)(c2ccccc2)c2ccccc2)n1 (stereo not drawn) [Compound I-47],150,1500,
"COc1nc(OC(C(=O)OCc2ccccc2)C(OC)(c2ccccc2)c2ccccc2)nc2c1CCC2 (stereo not drawn) [Example 12, Benzyl 3-methoxy-2-(4-methoxy-6,7-dihydro-5H-cyclopentapyrimidin-2-yloxy)-3,3-diphenylpropionate]",,,143 to 147
COc1cc(OC)nc(OC(C(=O)O)C(OCCCC(C)C)(c2ccccc2)c2ccccc2)n1 (stereo not drawn) [Compound I-23],209,1100,
COc1cc(OC)nc(OC(C(=O)O)C2(OC)c3ccccc3-c3ccccc32)n1 (stereo not drawn) [II-1],28,2300,96 to 98
